Consider 16 molecules from patent US8399512B2, “Biocompatible biodegradable fumagillin analog conjugates” (Mersana Therapeutics, Inc., priority 2007, dated 2013).

pIC50: −log10 of the molar value. Bounds are passed on as bounds.

The target of one data set is human MetAP-2 enzyme (Homo sapiens, UniProt P50579). Description: MetAP-2 inhibition (release of AMC from Met-Gly-Pro-AMC). Type of data set: biochemical. As for the experimental part: The test samples were evaluated for their ability to inhibit human MetAP-2 enzyme. The compounds were added at varying concentrations to human MetAP-2 enzyme (6 nM) in a buffered medium containing 20 mM Hepes, pH 7.4, 100 mM KCl, 0.1 mM Co(II), 10% glycerol, 5 mg/ml of L-Amino acid oxidase, 10 mg/ml of peroxidase, 10 mg/ml of o-dianisidine, and 2 mM of Met-Ser-Ala at 37° C. After 10 minutes incubation the reaction is started by adding the substrate Met-Gly-Pro-AMC to 2 mM and the release of AMC is measured with a Decan Plate reader (Excitation at 345 nm, emission at 445 nm). The kinetic data is recorded at 30 sec intervals for 30 min. Table 1 lists some of the conjugates and compounds tested along with their approximate IC50 values for inhibiting Met-AP2.

The subject of data set [1] is human umbilical vein endothelial cells (HUVECs). Description: Inhibitory effect on HUVEC cell growth (MTS/PES colorimetry). Type of data set: cell-based. To be noted: Homo sapiens, 120 h, cultured 5 days, MTS/PES absorbance 490 nm. As for the experimental part:
Using human umbilical vein endothelial cells (HUVECs), the effect of the fumagillin analog conjugates and the fumagillin analogs on cell growth was evaluated.
The HUVECs were added to M199 medium supplemented with 20% FBS, after which the cells were incubated at 37° C. under 5% CO2. 96-well plates were seeded at 5,000 cells/well in a total volume of 100 μL. The cells were left overnight to attach to the plate. Cells were subcultured a maximum of 15 times before being discarded.
To evaluate the inhibitory activity of the fumagillin conjugate or the fumagillin analog alone on the growth of HUVEC cells, the conjugate or fumagillin analog was dissolved in the required amount of 0.9% saline, vortexed briefly to wet and disperse the solids, followed by vortexing for a total of 30 min. […] The cells were treated with the conjugate solution or fumagillin analog solution at various concentrations ranging from 30 nM to 0.01 nM, and cultured for 5 days at 37° C.
Colorimetry was performed to determine the extent of cell growth by adding 20 μL of MTS/PES reagent to each well, incubation for 4 h at 37° C. followed by measuring the absorbance at 490 nm.

Data set [2] relates to B16F10 tumor cells. Description: Tumor growth delay in B16F10 mouse melanoma. Type of data set: in vivo. As to conditions: IV, q3d × 4, BDF1 mice. As for the experimental part: BDF1 female mice (N=6) with 1×10^6 B16F10 tumor cells positioned subcutaneous in the flank were treated with various fumagillin conjugates of the invention. Tumor growth was monitored in parallel with positive and negative controls of cyclophosphamide and saline respectively. Treatment began when tumors reached an average size of 80-120 mg and tumor volumes were measured two times per week until animals reached an endpoint tumor volume of 2 grams or 45 days, whichever came first. Conjugates were administered as solutions in saline intravenously at dose levels of 30-100 mg/kg (expressed as fumagillin analog equivalents) on a schedule of q3dx4. Treatment outcomes were assessed in terms of percent tumor growth delay (% TGD), (see FIG. 1) defined as the percent increase in median time to endpoint for mice treated with an agent compared to those treated with saline.

Data set [3] has as its system B16F10 tumor cells. Description: Tumor growth delay in B16F10 mouse melanoma. Type of data set: in vivo. As to conditions: 80 mg/kg fumagillin analog equiv., IV, qod × 4, BDF1 mice.
A short description of data set [4]: Open field activity levels in mice. To be noted: C57B1/6 mice, 50-100 mg/kg for four weeks; conjugates IV, TNP-470 subcutaneously; versus saline. It is filed as in vivo, mouse. As for the experimental part: C57B1/6 female mice (N=8) were housed until they reached 11 weeks of age. Animals were then regularly administered with fumagillin conjugates or TNP-470 and their activity levels monitored in an open field arena. Activity levels were assessed with saline as a control. Conjugates were administered as solutions in saline intravenously at dose levels of 50-100 mg/kg (expressed as fumagillin-analog equivalents) and TNP-470 was administered subcutaneously at dose levels of 50-100 mg/kg. Dosing was performed for four weeks on schedules ranging from q2d to once weekly, and activity levels were observed four times throughout the study: (1) prior to compound administration, (2) after one week of dosing, (3) after two weeks of dosing, and (4) following the final week of dosing. Animals were placed in the open field arena for 10 minutes per trial and their activity monitored in terms of travel distance, peripheral squares crossed, center squares crossed, and rearing events.

The mark [5] stands for this setting: 80 mg/kg fumagillin analog equiv.

Chain of human MetAP-2 enzyme (P50579 whole entry): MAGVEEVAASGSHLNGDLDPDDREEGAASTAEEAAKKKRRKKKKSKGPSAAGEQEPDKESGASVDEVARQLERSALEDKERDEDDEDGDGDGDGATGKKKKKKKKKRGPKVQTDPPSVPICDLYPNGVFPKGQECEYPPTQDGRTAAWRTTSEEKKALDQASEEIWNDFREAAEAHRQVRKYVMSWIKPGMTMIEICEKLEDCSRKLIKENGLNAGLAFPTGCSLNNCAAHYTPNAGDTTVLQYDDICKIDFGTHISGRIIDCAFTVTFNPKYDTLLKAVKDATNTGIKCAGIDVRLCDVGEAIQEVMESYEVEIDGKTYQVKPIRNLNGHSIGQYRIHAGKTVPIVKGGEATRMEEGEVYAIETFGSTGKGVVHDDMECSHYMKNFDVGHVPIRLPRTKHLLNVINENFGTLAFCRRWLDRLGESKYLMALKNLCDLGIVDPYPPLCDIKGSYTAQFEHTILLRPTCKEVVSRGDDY

Take `CO[C@H]1[C@H](C2(C)O[C@@H]2CC=C(C)C)[C@]2(CC[C@H]1OC(=O)NCc1ccc(N)cc1)CO2` (stereo partly shown) [Compound 8]: the pIC50 is more than 8.00 against human MetAP-2 enzyme and more than 7.60 in data set [1].
The molecule `COc1ccc2c(ccn2C(=O)O[C@@H]2CC[C@]3(CO3)[C@@H](C3(C)O[C@@H]3CC=C(C)C)[C@@H]2OC)c1` (stereo partly shown) [Compound 23] showed a pIC50 in data set [1] of more than 7.60. In the data set on B16F10 tumor cells [2] (setting [5]), the “% TGD” value is 5-20%.
Taken in the same sequence, the figures for `CO[C@@H]1[C@H](O)CC[C@]2(CO2)[C@H]1C1(C)O[C@@H]1CC=C(C)C` (stereo partly shown) [Compound 25] were less than 7.52 and 20-50%.
Regarding `CO[C@H]1[C@H](C2(C)O[C@@H]2CC=C(C)C)[C@]2(CC[C@H]1OC(=O)N1CC3CC1CN3)CO2` (stereo partly shown) [Compound 26], the pIC50 in data set [1] was more than 7.60. For the same molecule, the “% TGD” value in the data set with B16F10 tumor cells [2] (60 mg/kg fumagillin analog equiv.) was 5-20%.
The molecule `COC1=CCC[C@]2(CO2)[C@H]1C1(C)O[C@@H]1CC=C(C)C` (stereo partly shown) [Compound 27] showed a pIC50 in data set [1] of more than 7.60. Further, in the data set with B16F10 tumor cells [2] (50 mg/kg fumagillin analog equiv.), the “% TGD” value is given as 5-20%.
As to `CO[C@H]1[C@H](C2(C)O[C@@H]2CC=C(C)C)[C@]2(CC[C@H]1OC(=O)NC(=O)CSCCNC(=O)C1CCCN1C(=O)OCC1c3ccccc3-c3ccccc31)CO2` (stereo partly shown) [Compound 31], the pIC50 in data set [1] is more than 7.60. In addition, the “% TGD” value with B16F10 tumor cells [2] (setting [5]) is given as 20-50%.
For `COc1ccc2[nH]cc(CCC(=O)O[C@@H]3CC[C@]4(CO4)[C@@H](C4(C)O[C@@H]4CC=C(C)C)[C@@H]3OC)c2c1` (stereo partly shown) [Compound 32], in data set [1], the pIC50 was more than 7.60. The “% TGD” value in the data set on B16F10 tumor cells [2] (setting [5]) is 20-50%.
`CO[C@H]1[C@H](C2(C)O[C@@H]2CC=C(C)C)[C@]2(CC[C@H]1OC(=O)C1CCC(CNC(=O)OCC3c4ccccc4-c4ccccc43)CC1)CO2` (stereo partly shown) [Compound 33] gave a pIC50 in data set [1] of less than 7.52. For the same molecule, in the data set on B16F10 tumor cells [2] (65 mg/kg fumagillin analog equiv.), the “% TGD” value was 5-20%.
Regarding `CO[C@H]1[C@H](C2(C)O[C@@H]2CC=C(C)C)[C@]2(CC[C@H]1OC(=O)NC(=O)CSc1cccc(N)c1)CO2` (stereo partly shown) [Compound 35], the pIC50 in data set [1] was more than 7.60. Also, the “% TGD” value with B16F10 tumor cells [2] (setting [5]) is on record as 20-50%.
In the case of `CO[C@H]1[C@H](C2(C)O[C@@H]2CC=C(C)C)[C@]2(CC[C@H]1NC(=O)C13CCC(C(=O)NCCCO)(CC1)CC3)CO2` (stereo partly shown) [Compound 38], in data set [1], the pIC50 is 7.00 to 7.60. The “% TGD” value with B16F10 tumor cells [2] (setting [5]) is 5-20%.
For the molecule `CO[C@@H]1[C@H](NC(=O)NC(=O)CSc2ccc(N)cc2)CC[C@]2(CO2)[C@H]1[C@@]1(C)O[C@@H]1CC=C(C)C` [Compound 39], the figures for the pIC50 (against human MetAP-2 enzyme; in data set [1]) were more than 8.00 and more than 7.60, respectively.
Turning to `CO[C@H]1[C@H](C2(C)O[C@@H]2CC=C(C)C)[C@]2(CC[C@H]1NC(=O)C13CCC(C(=O)O)(CC1)CC3)CO2` (stereo partly shown) [Compound 40], the pIC50 in data set [1] is 7.00 to 7.60. Further, the “% TGD” value with B16F10 tumor cells [3] was 20-50%.
With `CO[C@H]1[C@H](C2(C)O[C@@H]2CC=C(C)C)[C@]2(CC[C@H]1NC(=O)CCl)CO2` (stereo partly shown) [Compound 44], the pIC50 in data set [1] was more than 7.60. In the data set on B16F10 tumor cells [2] (setting [5]), the “% TGD” value is listed as 5-20%.
On to `CO[C@H]1[C@H](C2(C)O[C@@H]2CC=C(C)C)[C@]2(CC[C@H]1OC(=O)NCCc1ccc(NC(=O)[C@H](C)N)cc1)CO2` (stereo partly shown) [Compound 51], for which the pIC50 against human MetAP-2 enzyme was more than 8.00; in data set [1], more than 7.60.
Take `CO[C@H]1C([C@@]2(C)O[C@@H]2CC=C(C)C)[C@]2(CC[C@H]1OC(=O)N[C@@H](C(N)=O)C(C)C)CO2` (stereo partly shown) [PPI-2458, reference compound]: the pIC50 on human MetAP-2 enzyme was more than 8.00.
For the molecule `CO[C@H]1C([C@@]2(C)O[C@@H]2CC=C(C)C)[C@]2(CC[C@H]1OC(=O)NC(=O)CCl)CO2` (stereo partly shown) [TNP-470, reference compound], at human MetAP-2 enzyme, the pIC50 was more than 8.00. Besides, the rearing-event activity levels entry in data set [4] is on record as “increased rearing-event activity levels”.

A word on the pIC50: it is the IC50 on a negative log10 scale, so that one unit is a factor of ten. A lower pIC50 goes with a high IC50.
